{"source": "patent US6603058B1", "about": "“Non-human animal model for obesity and uses thereof” (Oklahoma Medical Research Foundation, priority 1998, dated 2003)", "type_in_all_cases": "in vivo, mouse", "key": {"[1]": {"test": "Daily intraperitoneal MSH analog treatment of POMC homozygous mutant and wildtype female mice: body weight change and food intake", "settings": "for weight loss, share of excess weight: mutant female mice, 1 microgram (~1 nmol) i.p. daily; for weight loss in wildtype mice: wildtype non-obese littermates, peripheral (i.p.) daily treatment", "experimental": "To initially test for the effect of peripheral melanocortins on weight change, we selected the stable agonist [Ac-Cys^4, D-Phe^7, Cys^10] αMSH (4-13)(described in Cody et al., 1985, J. Med. Chem. 28, 583-588; incorporated herein by reference in its entirety). Briefly, [Ac-Cys^4,D-Phe^7, Cys^10] α-MSH (4-13) amide was obtained from Peninsula Laboratories, CA. Lyophilized powder was dissolved in water at 1 mg/ml, which was diluted in PBS to 10 μg/mL. During the experiments, mice were maintained on a normal 12h/12h light/dark cycle with food and water ad libitum. Mice were fed standard laboratory rodent diet (#5001).\nIn order to see whether the α-MSH analog has an effect on food intake, we compared weight change and food intake in these mice for one week (see bars in FIGS. 4A and 4B) under MSH analog treatment and after MSH analog treatment was stopped (FIGS. 4C and 4D). During one week under MSH analog treatment mutant mice lost 0.5 g, while wildtype littermates gained 0.3 g; the food intake during this time was equivalent in both groups (20.7 g in wildtypes, and 22.7 g in mutants)."}, "[2]": {"test": "Weight change and food intake in wildtype and POMC null mutant mice under standard diet, standard diet plus MSH analog, or high fat diet", "settings": "for food intake, standard diet v. standard diet & MSH analog treatment / weight change, standard diet v. standard diet & MSH analog treatment: MSH analog i.p. 1 or 2 μg once daily", "experimental": "P values were determined by ANOVA. If the major component of weight regulation through the melanocortinergic pathway was the regulation of feeding behavior, the observed changes in body weight in POMC null mutant mice should be paralleled by a similar pattern in food uptake. This, however, was not observed (FIGS. 5B and 5D and Table 1)."}, "[3]": {"test": "Coat pigmentation of mice treated with MSH for two weeks", "source_text": "An effect of MSH could also be seen on coat pigmentation. […] Yellow coat pigmentation gradually reappeared after MSH treatment was terminated (data not shown)."}, "[4]": {"settings": "both on standard diet & MSH analog treatment"}}}
{"substance": "[Ac-Cys^4,D-Phe^7, Cys^10] α-MSH (4-13) amide [MSH analog]", "values": [{"measurement": "weight loss, share of excess weight", "setting": "[1]; by 2 weeks", "value": "46 % of excess weight"}, {"measurement": "weight loss, share of excess weight", "setting": "[1]; within one week", "value": "38 % of excess weight"}, {"measurement": "body weight gained in one week after MSH analog treatment had been stopped for two weeks", "setting": "[1]; mutant mice", "value": 1.7, "unit": "g"}, {"measurement": "food intake during one week under MSH analog treatment", "setting": "[1]; mutant mice", "value": 22.7, "unit": "g"}, {"measurement": "food intake in one week after MSH analog treatment had been stopped for two weeks", "setting": "[1]; mutant mice", "value": 35.7, "unit": "g"}, {"measurement": "time after stop of MSH injections until mutant mice started to gain weight", "setting": "[1]; mutant mice", "value": "about 10 days"}, {"measurement": "loss of excess weight after two weeks (summary statement)", "setting": "[1]; mutant mice treated peripherally", "value": "over 40 % of excess weight"}, {"measurement": "body weight lost during one week under MSH analog treatment", "setting": "[1]; mutant mice, second week of treatment", "value": 0.5, "unit": "g"}, {"measurement": "difference in food intake, mutants over wildtypes, after treatment stopped for two weeks", "setting": "[1]; one week, p<0.005", "value": 11.5, "unit": "g"}, {"measurement": "body weight gained in one week after MSH analog treatment had been stopped for two weeks", "setting": "[1]; wildtype littermates", "value": 0.3, "unit": "g"}, {"measurement": "body weight gained during one week under MSH analog treatment", "setting": "[1]; wildtype littermates, second week of treatment", "value": 0.3, "unit": "g"}, {"measurement": "food intake during one week under MSH analog treatment", "setting": "[1]; wildtype mice", "value": 20.7, "unit": "g"}, {"measurement": "food intake in one week after MSH analog treatment had been stopped for two weeks", "setting": "[1]; wildtype mice", "value": 24.2, "unit": "g"}, {"measurement": "weight loss in wildtype mice", "setting": "[1]; listed as MSH-agonist", "value": "no significant weight loss"}, {"measurement": "weight loss in wildtype mice", "setting": "[1]; listed as stable α-MSH agonist", "value": "did not lose significant weight"}, {"measurement": "food intake, wildtype v. mutant", "setting": "[2]; [4]", "value": "↑"}, {"measurement": "weight change, wildtype v. mutant", "setting": "[2]; [4]", "value": "↓"}, {"measurement": "food intake, standard diet v. standard diet & MSH analog treatment", "setting": "[2]; mutant mice", "value": "decreases food intake and ↓"}, {"measurement": "weight change, standard diet v. standard diet & MSH analog treatment", "setting": "[2]; mutant mice", "value": "lose excess weight and ↓"}, {"measurement": "food intake, standard diet v. standard diet & MSH analog treatment", "setting": "[2]; wildtype mice", "value": "decreases food intake and ↓"}, {"measurement": "weight change, standard diet v. standard diet & MSH analog treatment", "setting": "[2]; wildtype mice", "value": "←→"}, {"measurement": "effect on coat pigmentation", "setting": "[3]", "value": "lost their yellowish tinge"}]}
